Source: patent US20130040036A1, “Shelf Stable, Low Water Liquid Beverage Concentrates And Methods Of Making The Same” (priority 2011, published 2013)

Test: Solubility of sucralose in non-aqueous liquids
Type: physicochemical
Details: 1,3-propanediol vs propylene glycol
From the text: Therefore, beverage concentrates containing sucralose may be advantageously prepared using a solvent comprising 1,3-propanediol to provide a beverage concentrate that is able to maintain sucralose in solution throughout its shelf life. In other instances, selection of NAL may also depend, at least in part, on the flavor provided by the NAL and the desired taste profile in the final beverage. In yet other instances, selection of NAL may also depend, at least in part, on the viscosity and/or the desired density of the resulting concentrate.

With `OC[C@H]1O[C@H](O[C@]2(CCl)O[C@H](CCl)[C@@H](O)[C@@H]2O)[C@H](O)[C@@H](O)[C@H]1Cl` [sucralose] the “solubility in non-aqueous liquid” value was “more readily solubilized in 1,3-propanediol than in propylene glycol”.
